Test results from patent US6593362B2, “Non-peptidic cyclophilin binding compounds and their use” (Guilford Pharmaceuticals Inc., priority 2001, dated 2003).
pIC50: −log10 of the molar value.

How the values were obtained:
[1] = biological target: CyP A (Homo sapiens, UniProt P62937); assay: biochemical; conditions: for inhibition at 10 µM: read-out: % Inhibition at 10 μM
Experimental: A number of substrates for rotamase are known in the art or can be derived from those known. Typically, the substrate contacts a sample containing a protein with rotamase activity and the conversion of the substrate is detected after a period of time. The method for detecting conversion of the substrate will vary with the particular substrate chosen.
The following were added to a plastic cuvette: […] of ice cold assay buffer (25 mM HEPES, pH 7.8, 100 mM NaCl), 10 μL of CyP A (2.5 μM in 10 mM Tris-Cl pH 7.5, 100 mM NaCl, 1 mM dithiothreitol), 25 μL of chymotrypsin (50 mg/ml in 1 mM HCl), and 10 μL of test compound, at various concentrations, in dimethyl sulfoxide. The reaction was initiated by the addition of 5 μL of substrate (succinyl-Ala-Phe-Pro-Phe-para-nitroanilide, 5 mg/mL in 470 mM LiCl in trifluoroethanol). The absorbance at 390 nm versus time was monitored for 90 seconds using a spectrophotometer.
While CyP A is used in these examples, other CyP proteins can be substituted.

[2] = tested on: ventral horn motoneurons; assay: Neuroprotection assay, THA-treated organotypic spinal cord slice cultures; format: cell-based; conditions: THA 200 μM + compound 10 μM, rat spinal cord slice cultures, FIGS. 1-6
Experimental: For each of FIGS. 1-6, the bar graphs represent the number of viable neurons after a specified treatment regimen employed in a neuroprotective activity assay. The cells of the experiments were treated with a control solution, a neurotoxic solution, and neurotoxic+experimental compound solution. The statistical significance, p, is calculated using the standard 2 tailed Student's t test.
Protection of cells from calcium-related physiological stress can be assessed in a neuroprotection assay. Organotypic slice cultures of rat spinal cord tissue display a protracted loss of ventral horn motoneurons when exposed to the glutamate uptake inhibitor THA. […] Each experiment consisted of two 6-well plates with 5 slices from 4 different animals per well. Media changes were performed every 3 to 4 days. […] The control was an untreated sample with 0.1% DMSO as vehicle. The THA control was a THA treated sample with 0. 1% DSMO as vehicle. Two wells were used per condition. One media change with new THA and compounds was performed. The experiment was stopped 6 to 8 days following drug treatment (13-15 total days in vitro, DIV) as dictated by visual assessment of lesion, by fixation with 4% paraformaldehyde/0.1 M phosphate buffer for 30 minutes. Slices were permeabilized with 100% cold methanol for 10 minutes. Slices were transferred to staining wells. The slices were blocked with 10% horse serum/TBS. Primary antibody incubation was overnight at 4° C. with SMI-32 antibody 1:5000 in 2% horse serum/TBS. SMI-32 is specific towards the unphosphorylated H neurofilament subunit, and was here utilized as a marker for ventral horn motoneurons. A Vectastain ABC Elite Kit with rat absorbed anti-mouse secondary antibody was used with DAB to stain the slices. The slices were mounted under DPX mounting solution for microscopy.
Quantification of surviving neurons was performed on a Zeiss Axiovert microscope. Neuronal survival was determined by observing an intact neuronal cell body with processes located ventrally of the central canal in each hemisphere. This correlated to laminae VII, VIII and IX. Each hemisphere was counted individually. The statistics were performed with StatView software on a minimum of three different experiments per condition and significance was determined as compared to THA control. The percent of protection was determined from the average number of living neurons by the following equation: (drug treatment condition —THA control)/(Untreated control-THA control).

[3] = tested on: neuronal cells; assay: Neurotrophic or neuroprotectant activity (assay not specified); format: cell-based
From the text: In general, activity in the nervous system for a particular compound can be identified by assaying for the ability to promote neurite outgrowth, protect neurons from damage by chemical treatments, promote the growth of neurons or neuronal cells, recover lost or damaged motor, functional or cognitive ability associated with nervous tissue or organs of the nervous system, or regenerate neurons. These activities can be useful in treating, diagnosing, or prognosing a number of human disease conditions, including, but not limited to, Parkinson's disease, Alzheimer's disease, amyotrophic lateral sclerosis (ALS), traumatic injury, spinal cord injury, multiple sclerosis, diabetic neuropathy, neuropathy associated with medical treatments such as chemotherapy, ischemia or ischemia-induced injury, stroke, oxygen deprivation, retinopathies, peripheral neuropathies, and neuropathies associated with viral infection.
Preferred methods for detecting neuronal activity include a neuroprotective assay, in which a compound is tested for the ability to protect against treatment causing glutamate neurotoxicity. Sensory neuronal cultures (DRG) can also be assayed for neurite outgrowth, an assay for neurotrophic activity. […] Immunohistochemistry can aid in the visualization and quantitation of neurites as compared to control.

CyP A, sequence (P62937 whole entry): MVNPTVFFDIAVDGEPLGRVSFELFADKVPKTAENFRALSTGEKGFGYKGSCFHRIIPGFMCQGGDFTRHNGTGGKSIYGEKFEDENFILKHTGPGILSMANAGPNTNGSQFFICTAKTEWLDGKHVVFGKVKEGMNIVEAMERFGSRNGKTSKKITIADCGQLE

With `O=C(Nc1cc(Cl)cc(Cl)c1)Nc1cccc(NC(=O)Nc2cc(Cl)cc(Cl)c2)c1` [Compound 28] the inhibition at 10 µM [1] was 100%.
With `O=C(NCc1cccc2ccccc12)c1cccc(NC(=O)c2cc(Cl)cc(Cl)c2)c1` [Compound 16, {3-[(3,5-dichlorophenyl)carbonylamino]phenyl}-N-(naphthylmethyl) formamide] the inhibition at 10 µM [1] was 100% and the melting point was 205 to 208 °C.
In the case of `O=C(Nc1cccc(S(=O)(=O)NC(c2ccccc2)c2ccccc2)c1)C(c1ccccc1)c1ccccc1` [Compound 17], the pIC50 [1] was 6.19 and the inhibition at 10 µM [1] was 99%.
With `CN(C)c1ccc(NC(=O)Nc2cc(NC(=O)Nc3ccc(N(C)C)cc3)c(Br)cc2Br)cc1` [Compound 19] the pIC50 [1] was 5.54 and the inhibition at 10 µM [1] was 98%.
With cyclosporin A [CsA, reference compound] the “neuroprotective activity (number of viable neurons)” value (from here on “neuroprotective activity”) [2] was “maintains neuronal viability”.
`NC(=O)c1ccccc1NC(=O)Nc1cc(NC(=O)Nc2ccccc2C(N)=O)c(Br)cc1Br` [Compound 1] showed an inhibition at 10 µM [1] of 100%.
For `O=C(Nc1ccc(I)cc1)Nc1cc(NC(=O)Nc2ccc(I)cc2)c(Br)cc1Br` [Compound 3], the “neuroprotective activity” value [2] was “displays neuroprotective activity” and the pIC50 [1] was 6.22.
For `O=C(Nc1cccc(NC(=O)N(c2ccccc2)c2ccccc2)c1)N(c1ccccc1)c1ccccc1` [Compound 22], the inhibition at 10 µM [1] was 100%.
Compound `O=C(NCc1cccc2ccccc12)Nc1cccc(NC(=O)NCc2cccc3ccccc23)c1` [Compound 21] has an inhibition at 10 µM [1] of 100%.
In the case of `Cc1ccc(NC(=O)Nc2cccc(NC(=O)Nc3ccc(C)cc3C)c2)c(C)c1` [Compound 27], the inhibition at 10 µM [1] was 100%.
`O=C(Nc1ccc(Br)cc1Br)NC1CCCC(NC(=O)Nc2ccc(Br)cc2Br)C1` (centres unmarked) [Compound 24] showed an inhibition at 10 µM [1] of 100%.
`O=C(Nc1cccc2ccccc12)NC1CCCC(NC(=O)Nc2cccc3ccccc23)C1` (centres unmarked) [Compound 10] showed a pIC50 [1] of 5.35.
`O=C(NCc1cccc(CNC(=O)Nc2cc(Cl)cc(Cl)c2)c1)Nc1cc(Cl)cc(Cl)c1` [Compound 30] showed an inhibition at 10 µM [1] of 88%.
Work on `O=C(Nc1cc(Cl)cc(Cl)c1)NC1CCCC(NC(=O)Nc2cc(Cl)cc(Cl)c2)C1` (centres unmarked) [Compound 23] yielded an inhibition at 10 µM [1] of 100%.
`O=C(Nc1cccc(NC(=O)Nc2ccc(Br)cc2Br)c1)Nc1ccc(Br)cc1Br` [Compound 29] showed an inhibition at 10 µM [1] of 89%.
In the case of `O=C(NCc1cccc(CNC(=O)Nc2ccc(Br)cc2Br)c1)Nc1ccc(Br)cc1Br` [Compound 31], the inhibition at 10 µM [1] was 100%.
Compound `O=C(Nc1cc(Cl)cc(Cl)c1)c1cccc(C(=O)Nc2cc(Cl)cc(Cl)c2)c1` [Compound 14] has an inhibition at 10 µM [1] of 100%.
In the case of `COc1cccc(NC(=O)NC2CCCC(NC(=O)Nc3cccc(OC)c3)C2)c1` (centres unmarked) [Compound 12], the “neuroprotective activity” value [2] was “displays neuroprotective activity”, the pIC50 [1] was 5.02 and the inhibition at 10 µM [1] was 47.7%.
For `O=C(NCC1CCCC(CNC(=O)Nc2cc(Br)cc(Br)c2)C1)Nc1cc(Br)cc(Br)c1` (centres unmarked) [Compound 26], the inhibition at 10 µM [1] was 100%.
`O=S(=O)(Nc1cccc(OCCc2cccc3ccccc23)c1)c1cccc2ccccc12` [Compound 13] gave a pIC50 [1] of 6.08, an inhibition at 10 µM [1] of 100% and a melting point of 165 to 167 °C.
For `Cc1ccc(NC(=O)N(Cc2ccccc2)Cc2ccccc2)cc1NC(=O)N(Cc1ccccc1)Cc1ccccc1` [Compound 4], the “neuroprotective activity” value [2] was “displays neuroprotective activity”, the pIC50 [1] was 6.10 and the inhibition at 10 µM [1] was 100%.
`O=C(Nc1cccc(S(=O)(=O)NC(c2ccccc2)c2ccccc2)c1)c1cc(Cl)cc(Cl)c1` [Compound 18] showed a pIC50 [1] of 6.28 and an inhibition at 10 µM [1] of 100%.
With `CSc1ccc(Cl)cc1C(=O)Nc1cccc(NC(=O)c2cc(Cl)ccc2SC)c1` [Compound 6] the inhibition at 10 µM [1] was 100% and the “neurotrophic or neuroprotectant activity” value [3] was “possess neurotrophic or neuroprotectant activity”.
With `O=C(Nc1cccc(NC(=O)Nc2ccon2)c1)Nc1ccon1` [Compound 11] the “neuroprotective activity” value [2] was “displays neuroprotective activity”, the pIC50 [1] was 5.40 and the inhibition at 10 µM [1] was 93%.
With `O=C(Nc1ccccc1)Nc1cc(NC(=O)Nc2ccccc2)cc(C(F)(F)F)c1` [Compound 7] the inhibition at 10 µM [1] was 100% and the “neurotrophic or neuroprotectant activity” value [3] was “possess neurotrophic or neuroprotectant activity”.
Compound `O=C(NCC1CCCC(CNC(=O)Nc2cc(Cl)cc(Cl)c2)C1)Nc1cc(Cl)cc(Cl)c1` (centres unmarked) [Compound 25] has an inhibition at 10 µM [1] of 100%.
